Data taken from PubChem BioAssay AID330 (DTP/NCI, 2004).
“And” between values parts separate entries of the source, which are not always exact repeats. Identical values can stand only once. Inconclusive results and toxic doses are left out.

System: P388 leukemia ip, CD2F1 mice, survival T/C
Test: NCI In Vivo Anticancer Drug Screen. Data for tumor model P388 Leukemia (intraperitoneal) in CD2F1 (CDF1) mice
Settings: endpoint: median survival time, higher = longer survival
Procedure, shortened: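 Mice carrying the transplanted tumor received test compound or vehicle. Survival was recorded in each group, and the value is the treated-group measurement divided by that of the vehicle-treated control group.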

[1] = dose: 60.0 mg/kg/injection, schedule: Q01DX005 (ip), vehicle: Klucel (hydroxypropylcellulose) (HPC)
[2] = dose: 120.0 mg/kg/injection, schedule: Q01DX005 (ip), vehicle: Klucel (hydroxypropylcellulose) (HPC)
[3] = dose: 60.0 mg/kg/injection, schedule: Q01DX005 (ip), vehicle: saline with Tween-80
[4] = dose: 120.0 mg/kg/injection, schedule: Q01DX005 (ip), vehicle: saline with Tween-80
[5] = dose: 240.0 mg/kg/injection, schedule: Q01DX005 (ip), vehicle: saline with Tween-80

O=C(CCl)N1c2ccccc2Sc2ccccc21
T/C (dose: 12.5 mg/kg/injection, schedule: Q01DX009 (ip), vehicle: water): 105 % of control | T/C (dose: 25.0 mg/kg/injection, schedule: Q01DX009 (ip), vehicle: water): 100 % of control | T/C (dose: 50.0 mg/kg/injection, schedule: Q01DX009 (ip), vehicle: water): 107 % of control | T/C (dose: 100.0 mg/kg/injection, schedule: Q01DX009 (ip), vehicle: water): 111 % of control | T/C (dose: 200.0 mg/kg/injection, schedule: Q01DX009 (ip), vehicle: water): 114 % of control

NC1(C(=O)O)CCCc2ccc(N(CCCl)CCCl)cc21 (stereo not drawn)
T/C (dose: 5.0 mg/kg/injection, schedule: Q04DX003 (ip), vehicle: saline): 165 % of control | T/C (dose: 6.25 mg/kg/injection, schedule: Q01DX009 (ip), vehicle: saline with Tween-80): 218 % of control and 197 % of control and 201 % of control | T/C (dose: 10.0 mg/kg/injection, schedule: Q04DX003 (ip), vehicle: saline): 180 % of control | T/C (dose: 12.5 mg/kg/injection, schedule: Q01DX009 (ip), vehicle: saline with Tween-80): 272 % of control and 210 % of control and 215 % of control | T/C (dose: 12.5 mg/kg/injection, schedule: Q04DX003 (ip), vehicle: saline with Tween-80): 222 % of control | T/C (dose: 25.0 mg/kg/injection, schedule: Q01DX009 (ip), vehicle: saline with Tween-80): 90 % of control and 102 % of control and 121 % of control | T/C (dose: 25.0 mg/kg/injection, schedule: Q04DX003 (ip), vehicle: saline with Tween-80): 272 % of control | T/C (dose: 313.0 micrograms/kg/injection, schedule: Q04DX003 (ip), vehicle: saline with Tween-80): 100 % of control | T/C (dose: 625.0 micrograms/kg/injection, schedule: Q04DX003 (ip), vehicle: saline with Tween-80): 109 % of control | T/C (dose: 1250.0 micrograms/kg/injection, schedule: Q04DX003 (ip), vehicle: saline with Tween-80): 113 % of control

c1ccc2cc3c(N=Nc4cc5ccccc5[nH]4)cccc3cc2c1
T/C (dose: 100.0 mg/kg/injection, schedule: Q01DX001 (ip), vehicle: saline with Tween-80): 97 % of control | T/C (dose: 200.0 mg/kg/injection, schedule: Q01DX001 (ip), vehicle: saline with Tween-80): 97 % of control | T/C (dose: 400.0 mg/kg/injection, schedule: Q01DX001 (ip), vehicle: saline with Tween-80): 94 % of control

COC(=O)c1nc(N)nc(C(=O)OC)c1C(=O)c1cccc([N+](=O)[O-])c1
T/C [1]: 100 % of control | T/C [2]: 101 % of control

C#Cc1cccc(NC(=O)c2ccc(Cl)cc2Cl)c1
T/C [1]: 100 % of control | T/C [2]: 104 % of control | T/C (dose: 240.0 mg/kg/injection, schedule: Q01DX005 (ip), vehicle: Klucel (hydroxypropylcellulose) (HPC)): 105 % of control

CCCCCCCCCCCCN(O)C(=O)c1ccccc1
T/C (dose: 50.0 mg/kg/injection, schedule: Q01DX009 (ip), vehicle: Klucel (hydroxypropylcellulose) (HPC)): 99 % of control and 115 % of control | T/C (dose: 100.0 mg/kg/injection, schedule: Q01DX009 (ip), vehicle: Klucel (hydroxypropylcellulose) (HPC)): 104 % of control | T/C (dose: 200.0 mg/kg/injection, schedule: Q01DX009 (ip), vehicle: Klucel (hydroxypropylcellulose) (HPC)): 108 % of control and 96 % of control

Nc1nnnn1NC(=O)c1ccccc1
T/C (dose: 100.0 mg/kg/injection, schedule: Q04DX003 (ip), vehicle: Klucel (hydroxypropylcellulose) (HPC)): 97 % of control | T/C (dose: 200.0 mg/kg/injection, schedule: Q04DX003 (ip), vehicle: Klucel (hydroxypropylcellulose) (HPC)): 102 % of control | T/C (dose: 400.0 mg/kg/injection, schedule: Q04DX003 (ip), vehicle: Klucel (hydroxypropylcellulose) (HPC)): 98 % of control

O=C(NCCN1CCN2Cc3[nH]c4ccccc4c3CC2C1)c1ccc([N+](=O)[O-])cc1 (stereo not drawn)
T/C (dose: 100.0 mg/kg/injection, schedule: Q04DX002 (ip), vehicle: saline with Tween-80): 96 % of control | T/C (dose: 200.0 mg/kg/injection, schedule: Q04DX002 (ip), vehicle: saline with Tween-80): 87 % of control | T/C (dose: 400.0 mg/kg/injection, schedule: Q04DX002 (ip), vehicle: saline with Tween-80): 86 % of control

CCCCCCCCCCCC[N+]1([O-])CCCCCC1
T/C (dose: 12.5 mg/kg/injection, schedule: Q01DX009 (ip), vehicle: saline): 100 % of control | T/C (dose: 25.0 mg/kg/injection, schedule: Q01DX009 (ip), vehicle: saline): 100 % of control | T/C (dose: 50.0 mg/kg/injection, schedule: Q01DX009 (ip), vehicle: saline): 107 % of control and 94 % of control

Cn1c(=O)c2c(nc(N3CCN(CCO)CC3)n2CC(O)CCl)n(C)c1=O (stereo not drawn)
T/C (dose: 50.0 mg/kg/injection, schedule: Q01DX005 (ip), vehicle: water): 100 % of control | T/C (dose: 100.0 mg/kg/injection, schedule: Q01DX005 (ip), vehicle: water): 99 % of control | T/C (dose: 200.0 mg/kg/injection, schedule: Q01DX005 (ip), vehicle: water): 99 % of control

CCOC(=O)C(=CNc1cc(C)c2[nH]c3ccc(Br)cc3c2c1C)C(=O)OCC
T/C [3]: 93 % of control | T/C [4]: 93 % of control | T/C [5]: 86 % of control and 93 % of control

C=C(C)C1CC2(C)C(C)C(OC(=O)/C(C)=C\C)CCC2C(O)C1=O (stereo not drawn)
T/C (dose: 15.0 mg/kg/injection, schedule: Q04DX002 (ip), vehicle: distilled water + alcohol): 96 % of control | T/C (dose: 30.0 mg/kg/injection, schedule: Q04DX002 (ip), vehicle: distilled water + alcohol): 104 % of control | T/C (dose: 57.5 mg/kg/injection, schedule: Q04DX002 (ip), vehicle: distilled water + alcohol): 107 % of control

Cc1cc(Nc2ccc(N(C)C)cc2)c2ccc(N(C)C)cc2n1
T/C (dose: 100.0 mg/kg/injection, schedule: Q04DX002 (ip), vehicle: acid diluted with saline): 95 % of control | T/C (dose: 200.0 mg/kg/injection, schedule: Q04DX002 (ip), vehicle: acid diluted with saline): 103 % of control | T/C (dose: 400.0 mg/kg/injection, schedule: Q04DX002 (ip), vehicle: acid diluted with saline): 96 % of control

N#CC(c1ccccc1)C(CC(=O)c1ccccc1)c1ccccc1 (stereo not drawn)
T/C (dose: 100.0 mg/kg/injection, schedule: Q01DX009 (ip), vehicle: saline with Tween-80): 86 % of control | T/C (dose: 200.0 mg/kg/injection, schedule: Q01DX009 (ip), vehicle: saline with Tween-80): 95 % of control | T/C (dose: 400.0 mg/kg/injection, schedule: Q01DX009 (ip), vehicle: saline with Tween-80): 95 % of control

O=C(O)CCC(=O)C(Cc1ccccc1)NC(=O)c1ccccc1 (stereo not drawn)
T/C (dose: 50.0 mg/kg/injection, schedule: Q01DX005 (ip), vehicle: saline with Tween-80): 94 % of control | T/C [3]: 91 % of control | T/C (dose: 100.0 mg/kg/injection, schedule: Q01DX005 (ip), vehicle: saline with Tween-80): 89 % of control | T/C [4]: 100 % of control | T/C (dose: 200.0 mg/kg/injection, schedule: Q01DX005 (ip), vehicle: saline with Tween-80): 100 % of control | T/C [5]: 98 % of control

O=S1(=O)CS(=O)(=O)OCCCO1
T/C (dose: 6.25 mg/kg/injection, schedule: Q01DX005 (ip), vehicle: Klucel (hydroxypropylcellulose) (HPC)): 151 % of control | T/C (dose: 12.5 mg/kg/injection, schedule: Q01DX005 (ip), vehicle: Klucel (hydroxypropylcellulose) (HPC)): 169 % of control

COc1cccc2c1C(=O)c1c(O)c3c(c(O)c1C2=O)CC(O)(C(=O)COC(C)C)CC3O (stereo not drawn)
T/C (dose: 1.56 mg/kg/injection, schedule: Q01DX009 (ip), vehicle: other): 100 % of control | T/C (dose: 3.13 mg/kg/injection, schedule: Q01DX009 (ip), vehicle: other): 100 % of control | T/C (dose: 6.25 mg/kg/injection, schedule: Q01DX009 (ip), vehicle: other): 100 % of control | T/C (dose: 12.5 mg/kg/injection, schedule: Q01DX009 (ip), vehicle: other): 103 % of control | T/C (dose: 25.0 mg/kg/injection, schedule: Q01DX009 (ip), vehicle: other): 103 % of control
